By pEC50 is commonly meant −log10 of the EC50, conventionally taken in molar units.

The record followed here is patent US20240279215A1 (Cytokinetics, Incorporated, priority 2022, published 2024).

This experiment has as its target human NAMPT (Homo sapiens (Human), UniProt P43490). Briefly: NMN fluorescence biochemical assay (human recombinant NAMPT enzyme assay). In outline:
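NMN formed was detected by fluorescence (Ex/Em 355/460 nm) after acetophenone, KOH and formic acid derivatization. The cell-free reaction ran 60 min at ambient temperature with 6 nM human NAMPT, 150 μM nicotinamide, 20 μM PRPP, 2.5 mM ATP, pH 7.2 HEPES, and compound dose responses.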

SMILES strings stand for the structures. pEC50: −log10 of the molar value.

Sequence of human NAMPT (P43490 whole entry): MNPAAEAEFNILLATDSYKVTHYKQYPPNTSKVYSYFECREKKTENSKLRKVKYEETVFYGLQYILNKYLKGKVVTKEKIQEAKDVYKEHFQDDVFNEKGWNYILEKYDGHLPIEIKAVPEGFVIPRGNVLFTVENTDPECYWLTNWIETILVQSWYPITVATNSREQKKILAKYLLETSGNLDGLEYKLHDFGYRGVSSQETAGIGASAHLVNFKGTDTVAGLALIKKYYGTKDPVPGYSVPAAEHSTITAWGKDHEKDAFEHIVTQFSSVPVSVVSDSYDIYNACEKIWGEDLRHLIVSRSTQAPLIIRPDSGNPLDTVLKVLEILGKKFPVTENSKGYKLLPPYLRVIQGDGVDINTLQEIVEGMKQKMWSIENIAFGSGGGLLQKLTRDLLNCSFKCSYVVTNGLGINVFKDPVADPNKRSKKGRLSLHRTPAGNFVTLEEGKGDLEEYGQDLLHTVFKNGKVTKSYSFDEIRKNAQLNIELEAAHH

As to `O=C(Nc1ccc(CC2CC3CCC(C2)N3C(=O)N2CCOCC2)cc1)OCc1cnco1` (centres unmarked) [Compound 389, oxazol-5-ylmethyl (4-((8-(morpholine-4-carbonyl)-8-azabicyclo[3.2.1]octan-3-yl)methyl)phenyl)carbamate], the “AC1.4 Human” value is 0.09 µM and the pEC50 is 5.43.
Turning to `O=C(Nc1ccc(CC2CC3CCC(C2)N3C(=O)N2CCCCC2)cc1)OCc1cnco1` (centres unmarked) [Compound 390, oxazol-5-ylmethyl (4-((8-(piperidine-1-carbonyl)-8-azabicyclo[3.2.1]octan-3-yl)methyl)phenyl)carbamate], the “AC1.4 Human” value was 0.13 µM and the pEC50 is 5.74.
`O=C(Nc1ccc(CC2CC3CCC(C2)N3C(=O)N2CCCC2)cc1)OCc1cnco1` (centres unmarked) [Compound 391, oxazol-5-ylmethyl (4-((8-(pyrrolidine-1-carbonyl)-8-azabicyclo[3.2.1]octan-3-yl)methyl)phenyl)carbamate]: the “AC1.4 Human” value was determined as 0.05 µM and the pEC50 was 5.26.
As for `O=C(Nc1ccc(CC2CC3CCC(C2)N3C(=O)N2CCC2)cc1)OCc1cnco1` (centres unmarked) [Compound 392, oxazol-5-ylmethyl (4-((8-(azetidine-1-carbonyl)-8-azabicyclo[3.2.1]octan-3-yl)methyl)phenyl)carbamate], the “AC1.4 Human” value turned out to be 0.13 µM and the pEC50 is 5.16.
As to `O=C(Nc1ccc(CC2CC3CCC(C2)N3S(=O)(=O)N2CCC2)cc1)OCc1cnco1` (centres unmarked) [Compound 393, oxazol-5-ylmethyl (4-((8-(azetidin-1-ylsulfonyl)-8-azabicyclo[3.2.1]octan-3-yl)methyl)phenyl)carbamate], the “AC1.4 Human” value was found to be 0.13 µM and the pEC50 was 5.42.
Take `O=C(Nc1ccc(CC2CC3CCC(C2)N3S(=O)(=O)C2CCC2)cc1)OCc1cnco1` (centres unmarked) [Compound 394, oxazol-5-ylmethyl (4-((8-(cyclobutylsulfonyl)-8-azabicyclo[3.2.1]octan-3-yl)methyl)phenyl)carbamate]: the “AC1.4 Human” value is 0.19 µM and the pEC50 was 5.34.
Turning to `COC(=O)N1CC2(CC(Cc3ccc(NC(=O)OCc4cnco4)cc3F)C2)C1` [Compound 396, methyl 6-(2-fluoro-4-(((oxazol-5-ylmethoxy)carbonyl)amino)benzyl)-2-azaspiro[3.3]heptane-2-carboxylate], the “AC1.4 Human” value worked out at 0.11 µM and the pEC50 was 5.17.
In the case of `O=C(Nc1ccc(CC2CC3(C2)CN(C2COC2)C3)c(F)c1)OCc1cnco1` [Compound 397, oxazol-5-ylmethyl (3-fluoro-4-((2-(oxetan-3-yl)-2-azaspiro[3.3]heptan-6-yl)methyl)phenyl)carbamate], the “AC1.4 Human” value was found to be 0.98 µM and the pEC50 is 4.37.
`CN(C)C(=O)N1CC2(CC(Cc3ccc(NC(=O)OCc4cnco4)cc3F)C2)C1` [Compound 398, oxazol-5-ylmethyl (4-((2-(dimethylcarbamoyl)-2-azaspiro[3.3]heptan-6-yl)methyl)-3-fluorophenyl)carbamate]: the “AC1.4 Human” value was found to be 0.08 µM and the pEC50 is 5.48.
Regarding `CC(=O)N1CC2(CC(c3ccc(NC(=O)OCc4cnco4)cc3F)C2)C1` [Compound 401, oxazol-5-ylmethyl (4-(2-acetyl-2-azaspiro[3.3]heptan-6-yl)-3-fluorophenyl)carbamate], the “AC1.4 Human” value is 0.04 µM and the pEC50 is 5.47.
For the compound `CCC(=O)N1CC2(CC(Cc3ccc(NC(=O)OCc4cnco4)cc3F)C2)C1` [Compound 402, oxazol-5-ylmethyl (3-fluoro-4-((2-propionyl-2-azaspiro[3.3]heptan-6-yl)methyl)phenyl)carbamate], the “AC1.4 Human” value turned out to be 0.07 µM and the pEC50 is 4.91.
As to `CC(C)C(=O)N1CC2(CC(Cc3ccc(NC(=O)OCc4cnco4)cc3F)C2)C1` [Compound 403, oxazol-5-ylmethyl (3-fluoro-4-((2-isobutyryl-2-azaspiro[3.3]heptan-6-yl)methyl)phenyl)carbamate], the “AC1.4 Human” value worked out at 0.15 µM and the pEC50 was 5.13.
The matching figures for `CS(=O)(=O)N1CC2(CC(Cc3ccc(NC(=O)OCc4cnco4)cc3F)C2)C1` [Compound 404, oxazol-5-ylmethyl (3-fluoro-4-((2-(methylsulfonyl)-2-azaspiro[3.3]heptan-6-yl)methyl)phenyl)carbamate]: 0.10 µM and 4.84.
With `CN(C)S(=O)(=O)N1C2CCC1CC(Cc1ccc(NC(=O)OCc3cnco3)cc1)C2` (centres unmarked) [Compound 405, oxazol-5-ylmethyl (4-((8-(N,N-dimethylsulfamoyl)-8-azabicyclo[3.2.1]octan-3-yl)methyl)phenyl)carbamate], the “AC1.4 Human” value worked out at 0.11 µM and the pEC50 is 5.47.
On to `CS(=O)(=O)N1C2CCC1CC(Cc1ccc(NC(=O)OCc3cnco3)cc1)C2` (centres unmarked) [Compound 406, oxazol-5-ylmethyl (4-((8-(methylsulfonyl)-8-azabicyclo[3.2.1]octan-3-yl)methyl)phenyl)carbamate], for which the “AC1.4 Human” value turned out to be 0.13 µM and the pEC50 is 5.22.
Take `COC(=O)N1C2CCC1CC(Cc1ccc(NC(=O)OCc3cnco3)cc1)C2` (centres unmarked) [Compound 407, methyl 3-(4-(((oxazol-5-ylmethoxy)carbonyl)amino)benzyl)-8-azabicyclo[3.2.1]octane-8-carboxylate]: the “AC1.4 Human” value turned out to be 0.26 µM and the pEC50 was 5.07.
In the case of `CN(C)C(=O)N1C2CCC1CC(Cc1ccc(NC(=O)OCc3cnco3)cc1)C2` (centres unmarked) [Compound 408, oxazol-5-ylmethyl (4-((8-(dimethylcarbamoyl)-8-azabicyclo[3.2.1]octan-3-yl)methyl)phenyl)carbamate], the “AC1.4 Human” value is 0.05 µM and the pEC50 is 5.46.
Consider `CC(C)C(=O)N1C2CCC1CC(Cc1ccc(NC(=O)OCc3cnco3)cc1)C2` (centres unmarked) [Compound 409, oxazol-5-ylmethyl (4-((8-isobutyryl-8-azabicyclo[3.2.1]octan-3-yl)methyl)phenyl)carbamate], for which the “AC1.4 Human” value came out at 0.20 µM and the pEC50 is 4.57.
For the compound `CC(=O)N1C2CCC1CC(Cc1ccc(NC(=O)OCc3cnco3)cc1)C2` (centres unmarked) [Compound 410, oxazol-5-ylmethyl (4-((8-acetyl-8-azabicyclo[3.2.1]octan-3-yl)methyl)phenyl)carbamate], the “AC1.4 Human” value was 0.13 µM and the pEC50 is 5.38.
Regarding `CN(C)C(=O)N1CCC(c2ccc(NC(=O)OCc3cnco3)cc2F)CC1` [Compound 411, oxazol-5-ylmethyl (4-(1-(dimethylcarbamoyl)piperidin-4-yl)-3-fluorophenyl)carbamate], the “AC1.4 Human” value is 0.04 µM and the pEC50 is 4.72.
Consider `CCC(=O)N1CCC(c2ccc(NC(=O)OCc3cnco3)cc2F)CC1` [Compound 412, oxazol-5-ylmethyl (3-fluoro-4-(1-propionylpiperidin-4-yl)phenyl)carbamate], for which the “AC1.4 Human” value is 0.05 µM and the pEC50 is 4.32.
The matching figures for `CC(=O)N1CCC(c2ccc(NC(=O)OCc3cnco3)cc2F)CC1` [Compound 413, oxazol-5-ylmethyl (4-(1-acetylpiperidin-4-yl)-3-fluorophenyl)carbamate]: 0.10 µM and 4.59.
As to `CC(C)C(=O)N1CCC(c2ccc(NC(=O)OCc3cnco3)cc2F)CC1` [Compound 414, oxazol-5-ylmethyl (3-fluoro-4-(1-isobutyrylpiperidin-4-yl)phenyl)carbamate], the “AC1.4 Human” value is 0.03 µM and the negative logarithm of the EC50 (pEC50) was 4.58.
The matching figures for `CS(=O)(=O)N1CCC(c2ccc(NC(=O)OCc3cnco3)cc2F)CC1` [Compound 415, oxazol-5-ylmethyl (3-fluoro-4-(1-(methylsulfonyl)piperidin-4-yl)phenyl)carbamate]: 0.18 µM and 4.92.
The matching figures for `CN(C)S(=O)(=O)N1CCC(c2ccc(NC(=O)OCc3cnco3)cc2F)CC1` [Compound 416, oxazol-5-ylmethyl (4-(1-(N,N-dimethylsulfamoyl)piperidin-4-yl)-3-fluorophenyl)carbamate]: 0.07 µM and 5.59.
The matching figures for `COC(=O)N1CCC(c2ccc(NC(=O)OCc3cnco3)cc2F)CC1` [Compound 417, methyl 4-(2-fluoro-4-(((oxazol-5-ylmethoxy)carbonyl)amino)phenyl)piperidine-1-carboxylate]: 0.18 µM and 4.57.
As to `CCS(=O)(=O)N1CCC(Cc2ccc(NC(=O)OCc3cnco3)cc2)CC12CC2` (centres unmarked) [Compound 418, oxazol-5-ylmethyl (4-((4-(ethylsulfonyl)-4-azaspiro[2.5]octan-7-yl)methyl)phenyl)carbamate], the “AC1.4 Human” value is 0.18 µM and the pEC50 is 5.22.
On the same counts, the results for `CS(=O)(=O)N1CCC(Cc2ccc(NC(=O)OCc3cnco3)cc2)CC12CC2` (centres unmarked) [Compound 419, oxazol-5-ylmethyl (4-((4-(methylsulfonyl)-4-azaspiro[2.5]octan-7-yl)methyl)phenyl)carbamate] are 0.32 µM and 4.90.
Consider `CS(=O)(=O)N1CC2CCC(C1)C2Cc1ccc(NC(=O)OCc2cnco2)cc1` (centres unmarked) [Compound 420, oxazol-5-ylmethyl (4-((3-(methylsulfonyl)-3-azabicyclo[3.2.1]octan-8-yl)methyl)phenyl)carbamate], for which the “AC1.4 Human” value stood at 0.12 µM and the pEC50 is 5.18.
As for `COC(=O)N1CC2CCC(C1)C2Cc1ccc(NC(=O)OCc2cnco2)cc1` (centres unmarked) [Compound 421, methyl 8-(4-(((oxazol-5-ylmethoxy)carbonyl)amino)benzyl)-3-azabicyclo[3.2.1]octane-3-carboxylate], the “AC1.4 Human” value is 0.13 µM and the pEC50 was 5.63.
Consider `CN(C)C(=O)N1CC2CCC(C1)C2Cc1ccc(NC(=O)OCc2cnco2)cc1` (centres unmarked) [Compound 422, oxazol-5-ylmethyl (4-((3-(dimethylcarbamoyl)-3-azabicyclo[3.2.1]octan-8-yl)methyl)phenyl)carbamate], for which the “AC1.4 Human” value is 0.07 µM and the pEC50 is 4.94.
